Consider six compounds from PMC7115414 (European Journal of Medicinal Chemistry, 2017).

The target in assay [1] is T1, SARS-CoV M^pro (Severe acute respiratory syndrome coronavirus, UniProt P0C6X7). The assay can be described thus: biochemical.
For assay [2], the target named is T1, SARS-CoV M^pro. The assay is classed as biochemical.

Broadly, the IC50 is the point on the concentration scale where inhibition reaches its midpoint. A higher IC50 goes with a need for much substance. In the case of `CCOC(=O)c1ccccc1SSc1nc(C(=O)OC)c[nH]1` [Compound 3-15, Methyl 2-((2-(ethoxycarbonyl)phenyl)disulfanyl)-1H-imidazole-4-carboxylate], the IC50 at SARS-CoV M^pro [1] is 5.95 ± 0.363 µM. For `Clc1ccc(SSc2nnco2)cc1` [Compound 3-31, 2-((4-chlorophenyl)disulfanyl)-1,3,4-oxadiazole], at SARS-CoV M^pro [2], the “inhibition type (reciprocal plots, velocity versus substrate concentration)” value is recorded as “non-competitive inhibitor”; the “reversibility (plot of enzyme concentration versus reaction velocity)” value is on record as “reversible”; the “α (effect of inhibitor on the affinity of the enzyme for its substrate)” value is listed as below 1. As for `COC(=O)c1c[nH]c(SSc2ccccc2C(=O)OC)n1` [Compound 3-16, Methyl 2-((2-(methoxycarbonyl)phenyl)disulfanyl)-1H-imidazole-4-carboxylate], the half-inhibitory concentration (IC50) against SARS-CoV M^pro [1] stood at 3.96 ± 0.19 µM. Turning to `Brc1ccc(SSc2ncccn2)cc1` [Compound 3-39, 2-((4-bromophenyl)disulfanyl)pyrimidine], at SARS-CoV M^pro [2], the “inhibition type (reciprocal plots, velocity versus substrate concentration)” value is “non-competitive inhibitor”; the “reversibility (plot of enzyme concentration versus reaction velocity)” value is “reversible”; the “α (effect of inhibitor on the affinity of the enzyme for its substrate)” value is below 1. With `COC(=O)c1c[nH]c(SSc2ccc(Cl)cc2)n1` [Compound 3-17, Methyl 2-((4-chlorophenyl)disulfanyl)-1H-imidazole-4-carboxylate], it took 4.13 ± 0.094 µM to reach half-maximal inhibition against SARS-CoV M^pro [1] (IC50).

`COC(=O)c1c[nH]c(SSc2ccccc2[N+](=O)[O-])n1` [Compound 3-14, Methyl 2-((2-nitrophenyl)disulfanyl)-1H-imidazole-4-carboxylate] showed an IC50 at SARS-CoV M^pro [1] of 2.075 ± 0.016 µM.
